Test results reported in ChEMBL document CHEMBL1201862, “PubChem BioAssay data set” (2004).
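In this assay, cells in 96-well plates receive the compound at five concentrations for 48 hours. Endpoints are linearly interpolated between the surrounding concentrations. GI50 = concentration required for 50% inhibition of growth.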 Calls of active or inactive are those of the source. No stated cut-off is given here; in the data, active = GI50 up to about 1.1 µM and inactive = higher.

Columns and labels:
Experiment in all cases: NCI anticancer screen, dose series, 48 h
A549 = test system: A549
OVCAR-4 = test system: OVCAR-4
HOP-62 = test system: HOP-62
HCC 2998 = test system: HCC 2998
OVCAR-5 = test system: OVCAR-5
M14 = test system: M14
CAKI-1 = test system: CAKI-1
ACHN = test system: ACHN
SK-MEL-5 = test system: SK-MEL-5
A498 = test system: A498
TK-10 = test system: TK-10
NCI-H226 = test system: NCI-H226
HT-29 = test system: HT-29
UACC-62 = test system: UACC-62
SF-268 = test system: SF-268
OVCAR-8 = test system: OVCAR-8
SK-MEL-28 = test system: SK-MEL-28
NCI-H23 = test system: NCI-H23
T47D = test system: T47D
NCI/ADR-RES = test system: NCI/ADR-RES

Structure (SMILES) | GI50 (A549) | GI50 (OVCAR-4) | GI50 (HOP-62) | GI50 (HCC 2998) | GI50 (OVCAR-5) | GI50 (M14) | GI50 (CAKI-1) | GI50 (ACHN) | GI50 (SK-MEL-5) | GI50 (A498) | GI50 (TK-10) | GI50 (NCI-H226) | GI50 (HT-29) | GI50 (UACC-62) | GI50 (SF-268) | GI50 (OVCAR-8) | GI50 (SK-MEL-28) | GI50 (NCI-H23) | GI50 (T47D) | GI50 (NCI/ADR-RES)
COC(=O)C(C(=O)C(=O)Nc1ccc(N)cc1[N+](=O)[O-])c1nc2ccc(Cl)cc2nc1O (stereo not given) | > 100 µM (inactive) | > 100 µM (inactive) | > 100 µM (inactive) | > 100 µM (inactive) | > 100 µM (inactive) | > 100 µM (inactive) | > 100 µM (inactive) | > 100 µM (inactive) | 95.5 µM (inactive) | > 100 µM (inactive) | > 100 µM (inactive) | 63 µM (inactive) | > 100 µM (inactive) | > 100 µM (inactive) | 72.9 µM (inactive) | > 100 µM (inactive) | > 100 µM (inactive) | > 100 µM (inactive) | – | –
CC(C)(C)N/N=C(\C(=O)Nc1nnc(S)[nH]1)C1C(=O)Nc2ccccc2[S+]1[O-] (stereo not given) | > 100 µM (inactive) | > 100 µM (inactive) | > 100 µM (inactive) | > 100 µM (inactive) | > 100 µM (inactive) | > 100 µM (inactive) | > 100 µM (inactive) | > 100 µM (inactive) | > 100 µM (inactive) | > 100 µM (inactive) | > 100 µM (inactive) | > 100 µM (inactive) | > 100 µM (inactive) | > 100 µM (inactive) | > 100 µM (inactive) | > 100 µM (inactive) | > 100 µM (inactive) | > 100 µM (inactive) | – | –
ClCCNCCNCCCl.ClCCNCCNCCCl.[O-][Cl+3]([O-])([O-])O | 73.5 µM (inactive) | 22.3 µM (inactive) | > 100 µM (inactive) | > 100 µM (inactive) | 24.9 µM (inactive) | 19.5 µM (inactive) | 19.1 µM (inactive) | 21.9 µM (inactive) | 23 µM (inactive) | 57.1 µM (inactive) | 49.9 µM (inactive) | > 100 µM (inactive) | > 100 µM (inactive) | 26.9 µM (inactive) | 25.5 µM (inactive) | 18.9 µM (inactive) | 46.2 µM (inactive) | 27.9 µM (inactive) | – | –
COc1ccc(C2C3CCc4ccccc4C3=NN2S(=O)(=O)c2ccc(/C=C/C(=O)O)cc2)cc1 (stereo not given) | 5.11 µM (inactive) | 7.23 µM (inactive) | 5.61 µM (inactive) | – | 9.91 µM (inactive) | 4.75 µM (inactive) | 8.93 µM (inactive) | 3.21 µM (inactive) | 4.01 µM (inactive) | – | 6.79 µM (inactive) | 5.98 µM (inactive) | 3.33 µM (inactive) | 2.82 µM (inactive) | 5.35 µM (inactive) | 11 µM (inactive) | – | < 0.01 µM (active) | 7.06 µM (inactive) | 1.75 µM (inactive)
O=C(c1cccc(C(=O)c2ccc3c4c(cccc24)C(=O)N(c2ccccc2)C3=O)c1)c1ccc2c3c(cccc13)C(=O)N(c1ccccc1)C2=O | > 100 µM (inactive) | > 100 µM (inactive) | 88.7 µM (inactive) | > 100 µM (inactive) | > 100 µM (inactive) | > 100 µM (inactive) | > 100 µM (inactive) | > 100 µM (inactive) | > 100 µM (inactive) | 17.3 µM (inactive) | 69.8 µM (inactive) | > 100 µM (inactive) | > 100 µM (inactive) | 40 µM (inactive) | > 100 µM (inactive) | > 100 µM (inactive) | > 100 µM (inactive) | > 100 µM (inactive) | – | > 100 µM (inactive)
